Reference: patent publication US6348464B1, “Pyrrolecarbonylimino derivatives as naaladase inhibitors” (Guilford Pharmaceuticals, Inc., priority 1999, dated 2002)
Counter-ions that a name gives are not always drawn. Like-named read-outs stand apart in the source and are kept apart here.

Experiments:
[1] = target: T1, NAALADase (Homo sapiens, UniProt Q04609); assay: In vitro inhibition of NAALADase activity; format: biochemical; conditions: 3-H-NAAG substrate, 37° C.; read-out: K1 (nM), in vitro inhibition of NAALADase activity
T1 construct: from tissue
Protocol: Protocol For Assaying In Vitro Inhibition of NAALADase Activity
The following were combined in each assay tube: 100 μL of 10 mM CoCl2, 250 μL of 200 mM Tris chloride, 100 μL tissue, 100 μL of 10 mM NAALADase inhibitor in Bakers H2O, and Bakers H2O to make a total volume of 950 μL. Each tube was then incubated for 10 minutes in a 37° C. water bath. 50 μL of 3-H-NAAG was then added to each assay tube and incubated for an additional 15 minutes in a 37° C. water bath. The assay was stopped by adding 1.0 ml of 0.1 M sodium phosphate.
Glutamate released by the action of the NAALADase enzyme was separated from the assay solution using an anion exchange resin. The resin was equilibrated to 25° C., 2.0 ml of the resin was added to a Pasteur pipette pre-loaded with a single glass bead, and each column was washed twice with distilled H2O. A column was placed over a scintillation vial and 200 μL of an assay sample was loaded onto the column. After draining, glutamate was eluted using two 1.0 ml washes of 1 M formic acid. After addition of 10 ml of scintillation cocktail, each sample was counted for 2 minutes on a scintillation counter.

[2] = system: cortical cell cultures; assay: In vitro assay on ischemia (potassium cyanide and 2-deoxyglucose insult); format: cell-based; conditions: 1 h, read-out: EC50, concentration required to cause a 50% reduction in glutamate toxicity following an ischemic insult
Protocol: To examine the in vitro effect of the compounds of formula I on ischemia, cortical cell cultures were treated with various compounds of formula I during an ischemic insult utilizing potassium cyanide and 2-deoxyglucose, and for one hour thereafter (for experimental details, see Vornov et al., J. Neurochem., Vol. 65, No. 4, pp. 1681-1691 (1995)). Neuroprotective effect is expressed as EC50, the concentration of the compound which is required to cause a 50% reduction in glutamate toxicity following an ischemic insult.

T1 sequence (Q04609 whole entry): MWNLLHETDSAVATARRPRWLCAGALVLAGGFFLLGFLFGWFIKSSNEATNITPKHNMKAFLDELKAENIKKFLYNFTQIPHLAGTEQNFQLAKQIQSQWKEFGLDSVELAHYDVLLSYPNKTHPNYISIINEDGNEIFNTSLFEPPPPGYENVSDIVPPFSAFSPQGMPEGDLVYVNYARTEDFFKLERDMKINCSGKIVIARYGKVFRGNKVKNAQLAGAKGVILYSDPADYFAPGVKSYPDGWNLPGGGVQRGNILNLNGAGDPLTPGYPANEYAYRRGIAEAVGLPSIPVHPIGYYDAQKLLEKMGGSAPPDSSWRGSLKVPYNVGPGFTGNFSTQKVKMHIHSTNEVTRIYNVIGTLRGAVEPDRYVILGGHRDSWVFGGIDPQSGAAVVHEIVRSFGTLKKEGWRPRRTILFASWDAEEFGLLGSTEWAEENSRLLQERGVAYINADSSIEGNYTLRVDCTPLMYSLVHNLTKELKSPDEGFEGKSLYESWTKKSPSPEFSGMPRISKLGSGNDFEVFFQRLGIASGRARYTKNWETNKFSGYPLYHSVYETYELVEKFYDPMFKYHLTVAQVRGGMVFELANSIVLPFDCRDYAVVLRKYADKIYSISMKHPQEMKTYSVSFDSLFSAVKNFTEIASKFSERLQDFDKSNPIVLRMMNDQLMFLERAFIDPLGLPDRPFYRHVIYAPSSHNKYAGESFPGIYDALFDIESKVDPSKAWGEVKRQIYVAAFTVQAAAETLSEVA

Row | Structure (SMILES) | Ki [1] [nM] | EC50 [2] [nM] | EC50 ([2]; cortical cell cultures, treated during potassium cyanide and 2-deoxyglucose insult and for one hour thereafter) [nM]
1 | Cc1ccc(C(=O)Nc2ccc(S(=O)(=O)O)c3cc(S(=O)(=O)O)cc(S(=O)(=O)O)c23)cc1NC(=O)c1cccc(NC(=O)Nc2cccc(C(=O)Nc3cc(C(=O)Nc4ccc(S(=O)(=O)O)c5cc(S(=O)(=O)O)cc(S(=O)(=O)O)c45)ccc3C)c2)c1 [Suramin, sodium salt, 8,8′-[carbonylbis[imino-3,1-phenylenecarbonylimino (4-methyl-3,1-phenylene)carbonylimino]]bis-1,3,5-naphthalenetrisulfonic acid hexasodium salt] | 527 | 24.7 | –
2 | O=C(Nc1ccc(S(=O)(=O)O)c2cc(S(=O)(=O)O)cc(S(=O)(=O)O)c12)c1cccc([N+](=O)[O-])c1 [8-(3-nitrobenzamido)-1,3,5-naphthalenetrisulfonic acid] | 20200 | – | > 1000
